According to patent US20260285850A1, “SUBSTITUTED OXAZOLIDINONES AND IMIDAZOLINONES AS HERBICIDES” (FMC CORPORATION, priority 2023, published 2026):

How the values were obtained:
Assay type in all cases: in vivo
[1] = test system: barnyardgrass (Echinochloa crus-galli); test: Test A preemergence soil spray, visual injury rating 0-100; conditions: 10 days
Procedure, shortened: (§1)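 Visual injury, scored 0-100 (100 = complete control) against untreated plants, 10 days after greenhouse treatment. Test chemicals in surfactant-containing non-phytotoxic solvent were applied in loam soil and sand, as a preemergence soil spray on seeds or postemergence to plants at the one- to two-leaf stage.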

[2] = test system: blackgrass (Alopecurus myosuroides); test: as above; conditions: 10 days
Procedure, shortened: as §1

corn (Zea mays) [3] = test: as above; conditions: 10 days
Procedure, shortened: as §1

[4] = test system: green foxtail (Setaria viridis); test: as above; conditions: 10 days
Procedure, shortened: as §1

kochia (Bassia scoparia) [5] = test: as above; conditions: 10 days
Procedure, shortened: as §1

[6] = test system: oat, wild (wild oat, Avena fatua); test: as above; conditions: 10 days
Procedure, shortened: as §1

[7] = test system: palmer (palmer amaranth, palmer pigweed, Amaranthus palmeri); test: as above; conditions: 10 days
Procedure, shortened: as §1

[8] = test system: ragweed (common ragweed, Ambrosia artemisiifolia); test: as above; conditions: 10 days
Procedure, shortened: as §1

[9] = test system: ryegrass, Italian (italian ryegrass, Lolium multiflorum); test: as above; conditions: 10 days
Procedure, shortened: as §1

soybean (Glycine max) [10] = test: as above; conditions: 10 days
Procedure, shortened: as §1

[11] = test system: wheat (Triticum aestivum); test: as above; conditions: 10 days
Procedure, shortened: as §1

[12] = test system: barnyardgrass (Echinochloa crus-galli); test: Test A postemergence application, visual injury rating 0-100
Procedure, shortened: as §1

[13] = test system: blackgrass (Alopecurus myosuroides); test: as above
Procedure, shortened: as §1

corn (Zea mays) [14] = test: as above
Procedure, shortened: as §1

[15] = test system: green foxtail (Setaria viridis); test: as above
Procedure, shortened: as §1

[16] = test system: horseweed (Erigeron canadensis); test: as above
Procedure, shortened: as §1

kochia (Bassia scoparia) [17] = test: as above
Procedure, shortened: as §1

[18] = test system: oat, wild (wild oat, Avena fatua); test: as above
Procedure, shortened: as §1

[19] = test system: palmer (palmer amaranth, palmer pigweed, Amaranthus palmeri); test: as above
Procedure, shortened: as §1

[20] = test system: ragweed (common ragweed, Ambrosia artemisiifolia); test: as above
Procedure, shortened: as §1

[21] = test system: ryegrass, Italian (italian ryegrass, Lolium multiflorum); test: as above
Procedure, shortened: as §1

soybean (Glycine max) [22] = test: as above
Procedure, shortened: as §1

[23] = test system: wheat (Triticum aestivum); test: as above
Procedure, shortened: as §1

[24] = test system: barnyardgrass (Echinochloa crusgalli); test: Test B flooded paddy test, visual plant response rating 0-100; conditions: 250 g ai/ha, Flood, applied to paddy water, evaluated after 13 days
Procedure, shortened: (§2)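 2-leaf plants; flood 3 cm over soil; compound dosed into paddy water; depth kept constant; greenhouse 13 d; visual scoring vs controls. Dash = no result.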

[25] = test system: ducksalad (Heteranthera limosa); test: as above; conditions: 250 g ai/ha, Flood, applied to paddy water, evaluated after 13 days
Procedure, shortened: as §2

rice (Oryza sativa) = test: as above; conditions: 250 g ai/ha, Flood, applied to paddy water, evaluated after 13 days
Procedure, shortened: as §2

[26] = test system: sedge, umbrella (small-flower umbrella sedge, Cyperus difformis); test: as above; conditions: 250 g ai/ha, Flood, applied to paddy water, evaluated after 13 days
Procedure, shortened: as §2

[27] = 62 g ai/ha, 0 = no effect, 100 = complete control
[28] = 62 g ai/ha, postemergence, 10 days, 0 = no effect, 100 = complete control
[29] = Postemergence, 16 g ai/ha, greenhouse 10 days, 0 no effect, 100 complete control

**Q.** How did the “Barnyardgrass plant response rating” value ([1]; 16 g ai/ha, 0 to 100 scale) turn out when CC1(C(=O)NC2CC=C(C(=O)OCC3CC3)C2)CN(c2cc(F)cc(Cl)c2)C(=O)O1 (centres unmarked) [Compound 144] was run?
**A.** 0

**Q.** And the “Barnyardgrass plant response rating (0-100)” value [1, 27]?
**A.** 100

**Q.** And the “Blackgrass plant response rating” value ([2]; 16 g ai/ha, 0 to 100 scale)?
**A.** 0

**Q.** And the “Blackgrass plant response rating (0-100)” value [2, 27]?
**A.** 0

**Q.** And the “Corn plant response rating” value (corn (Zea mays) [3]; 16 g ai/ha, 0 to 100 scale)?
**A.** 0

**Q.** What about the “Corn plant response rating (0-100)” value (corn (Zea mays) [3]; [27]) of the same compound?
**A.** 50

**Q.** And the “Foxtail, Green plant response rating” value ([4]; 16 g ai/ha, 0 to 100 scale)?
**A.** 0

**Q.** And the “Foxtail, Green plant response rating (0-100)” value [4, 27]?
**A.** 90

**Q.** What about the “Kochia plant response rating” value (kochia (Bassia scoparia) [5]; 16 g ai/ha, 0 to 100 scale) of the same compound?
**A.** 0

**Q.** And the “Kochia plant response rating (0-100)” value (kochia (Bassia scoparia) [5]; [27])?
**A.** 40

**Q.** And the “Oat, Wild plant response rating” value ([6]; 16 g ai/ha, 0 to 100 scale)?
**A.** 0

**Q.** What about the “Oat, Wild plant response rating (0-100)” value [6, 27] of the same compound?
**A.** 20

**Q.** What about the “Pigweed, Palmer plant response rating” value ([7]; 16 g ai/ha, 0 to 100 scale) of the same compound?
**A.** 50

**Q.** What about the “Pigweed, Palmer plant response rating (0-100)” value [7, 27] of the same compound?
**A.** 80

**Q.** What about the “Ragweed plant response rating” value ([8]; 16 g ai/ha, 0 to 100 scale) of the same compound?
**A.** 0

**Q.** And the “Ragweed plant response rating (0-100)” value [8, 27]?
**A.** 0

**Q.** And the “Ryegrass, Italian plant response rating” value ([9]; 16 g ai/ha, 0 to 100 scale)?
**A.** 10

**Q.** And the “Ryegrass, Italian plant response rating (0-100)” value [9, 27]?
**A.** 60

**Q.** And the “Soybean plant response rating” value (soybean (Glycine max) [10]; 16 g ai/ha, 0 to 100 scale)?
**A.** 0

**Q.** What about the “Soybean plant response rating (0-100)” value (soybean (Glycine max) [10]; [27]) of the same compound?
**A.** 10

**Q.** What about the “Wheat plant response rating” value ([11]; 16 g ai/ha, 0 to 100 scale) of the same compound?
**A.** 0

**Q.** And the “Wheat plant response rating (0-100)” value [11, 27]?
**A.** 70

**Q.** And the “Barnyardgrass plant response rating (0-100)” value [12, 28]?
**A.** 100

**Q.** And the “Barnyardgrass plant response rating (0 to 100 scale)” value [12, 29]?
**A.** 90

**Q.** And the “Blackgrass plant response rating (0-100)” value [13, 28]?
**A.** 100

**Q.** What about the “Blackgrass plant response rating (0 to 100 scale)” value [13, 29] of the same compound?
**A.** 70

**Q.** What about the “Corn plant response rating (0-100)” value (corn (Zea mays) [14]; [28]) of the same compound?
**A.** 100

**Q.** What about the “Corn plant response rating (0 to 100 scale)” value (corn (Zea mays) [14]; [29]) of the same compound?
**A.** 100

**Q.** What about the “Foxtail, Green plant response rating (0-100)” value [15, 28] of the same compound?
**A.** 90

**Q.** What about the “Foxtail, Green plant response rating (0 to 100 scale)” value [15, 29] of the same compound?
**A.** 90

**Q.** What about the “Horseweed plant response rating (0-100)” value [16, 28] of the same compound?
**A.** 80

**Q.** What about the “Horseweed plant response rating (0 to 100 scale)” value [16, 29] of the same compound?
**A.** 50

**Q.** What about the “Kochia plant response rating (0-100)” value (kochia (Bassia scoparia) [17]; [28]) of the same compound?
**A.** 80

**Q.** And the “Kochia plant response rating (0 to 100 scale)” value (kochia (Bassia scoparia) [17]; [29])?
**A.** 80

**Q.** What about the “Oat, Wild plant response rating (0-100)” value [18, 28] of the same compound?
**A.** 40

**Q.** What about the “Oat, Wild plant response rating (0 to 100 scale)” value [18, 29] of the same compound?
**A.** 20

**Q.** And the “Pigweed, Palmer plant response rating (0-100)” value [19, 28]?
**A.** 90

**Q.** And the “Pigweed, Palmer plant response rating (0 to 100 scale)” value [19, 29]?
**A.** 70

**Q.** What about the “Ragweed plant response rating (0-100)” value [20, 28] of the same compound?
**A.** 50

**Q.** And the “Ragweed plant response rating (0 to 100 scale)” value [20, 29]?
**A.** 20

**Q.** What about the “Ryegrass, Italian plant response rating (0-100)” value [21, 28] of the same compound?
**A.** 90

**Q.** And the “Ryegrass, Italian plant response rating (0 to 100 scale)” value [21, 29]?
**A.** 60

**Q.** And the “Soybean plant response rating (0-100)” value (soybean (Glycine max) [22]; [28])?
**A.** 80

**Q.** What about the “Soybean plant response rating (0 to 100 scale)” value (soybean (Glycine max) [22]; [29]) of the same compound?
**A.** 80

**Q.** What about the “Wheat plant response rating (0-100)” value [23, 28] of the same compound?
**A.** 90

**Q.** And the “Wheat plant response rating (0 to 100 scale)” value [23, 29]?
**A.** 60

**Q.** What about the “Plant response rating, Barnyardgrass (0 to 100 scale, 0 is no effect and 100 is complete control)” value [24] of the same compound?
**A.** 95

**Q.** And the “Plant response rating, Ducksalad (0 to 100 scale, 0 is no effect and 100 is complete control)” value [25]?
**A.** 80

**Q.** What about the “Plant response rating, Rice (0 to 100 scale, 0 is no effect and 100 is complete control)” value (rice (Oryza sativa)) of the same compound?
**A.** 50

**Q.** What about the “Plant response rating, Sedge, Umbrella (0 to 100 scale, 0 is no effect and 100 is complete control)” value [26] of the same compound?
**A.** 100
